The subject of one data set is SiHa cells. The data set can be described thus: MTT antiproliferative assay, SiHa. In kind it is cell-based. Particulars: Homo sapiens, 72 h; for inhibition at 10 µM / inhibition at 30 µM: read-out: Growth inhibition (%) ± SEM. On the procedure:
(§1) The in vitro anticancer effects of the presented compounds were assessed using the standard MTT [3-(4,5-dimethylthiazol2-yl)-2,5-diphenyltetrazolium bromide] assay on the following human cancer cell lines: cervical (HeLa and SiHa), breast (MCF-7 and MDA-MB-231) and ovarian cancer (A2780). The selectivity of the tested compounds was determined on murine embryonal fibroblast cells (NIH/3T3). The utilised cell lines were purchased from the European Collection of Cell Cultures (Salisbury, UK). The cells were cultivated in Eagle’s minimal essential medium supplemented with 10% fetal bovine serum, 1% non-essential amino acids and 1% antibiotic-antimycotic complex (penicillin, streptomycin, amphotericin B) at 37 °C in a humidified atmosphere containing 5% CO2. All media and supplements were purchased from Lonza Group Ltd. (Basel, Switzerland). The cancer cells were seeded into 96-well plates (5000 cells/well) and incubated overnight, and the test compounds were applied in two different concentrations (10 µM and 30 µM) and incubated for another 72 h under cell-culturing conditions. […] After 72 h, 20 µL of the 5 mg/mL MTT solution was added to each well, and the plates were incubated for 4 h. The medium was removed, and the formazan crystals produced by the mitochondrial activity were dissolved in dimethyl sulfoxide (DMSO) via shaking at 37 °C for 30 min. The absorbances were measured at 545 nm using a microplate reader (SPECTROStar Nano, BMG Labtech, Offenburg, Germany). The reference agent was cisplatin, which is a widely used cytotoxic agent. The IC50 values were calculated using sigmoid curve fitting. Two independent experiments were performed with five parallel wells for each condition. Calculations were performed using the GraphPad Prism 9 software (GraphPad Software Inc., San Diego, CA, USA).
A general note: Tetrazolium assays rely on reduction of a dye to a coloured formazan, in cell work by metabolically active cells.

Another data set relates to A2780 cells. The data set can be described thus: MTT antiproliferative assay, A2780. In kind it is cell-based. Particulars: Homo sapiens; for inhibition at 10 µM: A2780, 10 μM; for inhibition at 10 µM / inhibition at 30 µM: 72 h, read-out: Growth inhibition (%) ± SEM; for inhibition at 30 µM: A2780, 30 μM. On the procedure:
as §1

In the next data set the test system is NIH/3T3 fibroblast cells. The data set can be described thus: MTT assay on non-malignant fibroblasts (selectivity). The class given is cell-based, murine. The note with it: Mus musculus, NIH3T3; for inhibition at 10 µM: NIH/3T3, 10 μM; for inhibition at 10 µM / inhibition at 30 µM: 72 h, read-out: Growth inhibition (%) ± SEM; for inhibition at 30 µM: NIH/3T3, 30 μM. On the procedure: as §1

A further data set deals with MCF-7 cells. Briefly: MTT antiproliferative assay, MCF-7. In kind it is cell-based. Particulars: Homo sapiens, MCF7; for inhibition at 10 µM: MCF-7, 10 μM; for inhibition at 10 µM / inhibition at 30 µM: 72 h, read-out: Growth inhibition (%) ± SEM; for inhibition at 30 µM: MCF-7, 30 μM. On the procedure:
as §1

The next data set relates to HeLa cells. Briefly: MTT antiproliferative assay, HeLa. The class given is cell-based. The note with it: Homo sapiens, 72 h; for inhibition at 10 µM / inhibition at 30 µM: read-out: Growth inhibition (%) ± SEM. On the procedure:
as §1

The subject of the next data set is MDA-MB-231 cells. The data set can be described thus: MTT antiproliferative assay, MDA-MB-231. The class given is cell-based. The note with it: Homo sapiens; for inhibition at 10 µM: MDA-MB-231, 10 μM; for inhibition at 10 µM / inhibition at 30 µM: 72 h, read-out: Growth inhibition (%) ± SEM; for inhibition at 30 µM: MDA-MB-231, 30 μM. On the procedure:
as §1

Molecules are shown by their SMILES. Some results are limits rather than exact numbers.

For orientation: inhibition means the drop in the measured response relative to a control, in per cent. As a reminder, the melting point is the temperature of the solid-liquid transition. `COC(=O)[C@]1(C)CCC[C@@]2(C)[C@@H]3CC[C@@]4(CO)C[C@]3(CC[C@@H]21)C[C@H]4N[C@H](C)c1cccc2ccccc12` [Compound 13, (4R,4aS,6aR,8R,9R,11aR,11bS)-Methyl 9-(hydroxymethyl)-4,11b-dimethyl-8-(((R)-1-(naphthalen-1-yl)ethyl)amino)tetradecahydro-6a,9-methanocyclohepta[a]naphthalene-4-carboxylate] registered a melting point of 180 to 185 °C. In the data set with SiHa cells, the inhibition at 10 µM is 24.2 ± 3.46% and the inhibition at 30 µM is 87.9 ± 1.62%. Moreover, in the data set with A2780 cells, the inhibition at 10 µM turned out to be 83.7 ± 1.95% and the inhibition at 30 µM turned out to be 99.02 ± 0.39%. In the data set with NIH/3T3 fibroblast cells, the inhibition at 10 µM was less than 20% and the inhibition at 30 µM was determined as 96.88 ± 0.74%. Further, in the data set with MCF-7 cells, the inhibition at 10 µM is 56.7 ± 3.88% and the inhibition at 30 µM worked out at 96.84 ± 0.55%. In the data set on HeLa cells, the inhibition at 10 µM is less than 20% and the inhibition at 30 µM worked out at 92.3 ± 2.7%. Further, in the data set on MDA-MB-231 cells, the inhibition at 10 µM was less than 20% and the inhibition at 30 µM was 94.3 ± 1.83%.
For `COC(=O)[C@]1(C)CCC[C@@]2(C)[C@@H]3CC[C@@]4(CO)C[C@]3(CC[C@@H]21)C[C@H]4N[C@@H](C)c1cccc2ccccc12` [Compound 14, (4R,4aS,6aR,8R,9R,11aR,11bS)-Methyl 9-(hydroxymethyl)-4,11b-dimethyl-8-(((S)-1-(naphthalen-1-yl)ethyl)amino)tetradecahydro-6a,9-methanocyclohepta[a]naphthalene-4-carboxylate], the melting point lay in the range of 151 to 157 °C. For the same compound, in the data set on SiHa cells, the inhibition at 10 µM was 34.1 ± 2.53% and the inhibition at 30 µM came out at 88.88 ± 0.87%. Further, in the data set on A2780 cells, the inhibition at 10 µM was found to be 93.3 ± 1.99% and the inhibition at 30 µM came to 99.57 ± 0.35%. In the data set with NIH/3T3 fibroblast cells, the inhibition at 10 µM amounted to 50.4 ± 2.91% and the inhibition at 30 µM worked out at 97.15 ± 0.6%. Besides, in the data set with MCF-7 cells, the inhibition at 10 µM came to 78.9 ± 4.11% and the inhibition at 30 µM was found to be 97.44 ± 0.53%. In the data set with HeLa cells, the inhibition at 10 µM came to 24.6 ± 2.79% and the inhibition at 30 µM was determined as 95.1 ± 1.6%. Besides, in the data set on MDA-MB-231 cells, the inhibition at 10 µM is 53.2 ± 2.44% and the inhibition at 30 µM stood at 95 ± 1.24%.
In general, IC50 refers to the midpoint of a concentration-inhibition curve. `COC(=O)[C@]1(C)CCC[C@@]2(C)[C@@H]3CC[C@@]4(CO)C[C@]3(CC[C@@H]21)C[C@H]4N[C@H](C)c1ccc2ccccc2c1` [Compound 17, (4R,4aS,6aR,8R,9R,11aR,11bS)-Methyl 9-(hydroxymethyl)-4,11b-dimethyl-8-(((R)-1-(naphthalen-2-yl)ethyl)amino)tetradecahydro-6a,9-methanocyclohepta[a]naphthalene-4-carboxylate] gave a melting point of 150 to 153 °C. Further, in the data set with SiHa cells, the inhibition at 10 µM stood at 83.3 ± 1.58% and the inhibition at 30 µM was found to be 86.7 ± 1.74%. Besides, the IC50 with SiHa cells (read-out: calculated IC50) was 5.37 µM. In addition, in the data set on A2780 cells (A2780, 72 h, read-out: calculated IC50), the IC50 was 4.06 µM. Further, in the data set on A2780 cells, the inhibition at 10 µM stood at 100.6 ± 0.76% and the inhibition at 30 µM is 100 ± 0.91%. In the data set on NIH/3T3 fibroblast cells, the inhibition at 10 µM amounted to 20.5 ± 1.7% and the inhibition at 30 µM came to 96.54 ± 0.62%. In the data set with NIH/3T3 fibroblast cells (NIH/3T3, 72 h, read-out: calculated IC50), the IC50 is 8.7 µM. Besides, in the data set on MCF-7 cells, the inhibition at 10 µM is 86.3 ± 2.86% and the inhibition at 30 µM came to 97.42 ± 0.71%. In addition, the IC50 with MCF-7 cells (MCF-7, 72 h, read-out: calculated IC50) was 2.47 µM. In the data set on HeLa cells, the inhibition at 10 µM was determined as 90.5 ± 1.34% and the inhibition at 30 µM was determined as 93.5 ± 2.5%. The concentration for half-maximal inhibition (IC50) in the data set with HeLa cells (read-out: calculated IC50) was 3.51 µM. Moreover, the IC50 in the data set on MDA-MB-231 cells (MDA-MB-231, 72 h, read-out: calculated IC50) was 5.62 µM. Besides, in the data set on MDA-MB-231 cells, the inhibition at 10 µM is 91.5 ± 1.24% and the inhibition at 30 µM was 95.03 ± 0.91%.
Take `COC(=O)[C@]1(C)CCC[C@@]2(C)[C@@H]3CC[C@@]4(CNCc5ccccc5)C[C@]3(CC[C@@H]21)C[C@H]4O` [Compound 22, (4R,4aS,6aR,8R,9S,11aR,11bS)-Methyl 9-((benzylamino)methyl)-8-hydroxy-4,11b-dimethyltetradecahydro-6a,9-methanocyclohepta[a]naphthalene-4-carboxylate]: the melting point lay within 98 to 104 °C. In addition, in the data set with SiHa cells, the inhibition at 10 µM came to 69 ± 2.02% and the inhibition at 30 µM amounted to 80.8 ± 2.91%. In the data set on A2780 cells, the inhibition at 10 µM was 69.5 ± 3.98% and the inhibition at 30 µM was 96.04 ± 0.45%. Moreover, in the data set with NIH/3T3 fibroblast cells, the inhibition at 10 µM was found to be 49 ± 1.37% and the inhibition at 30 µM came out at 94.25 ± 0.45%. Moreover, in the data set with MCF-7 cells, the inhibition at 10 µM amounted to 90.6 ± 0.98% and the inhibition at 30 µM stood at 94.23 ± 0.82%. For the same compound, in the data set on HeLa cells, the inhibition at 10 µM stood at 59.2 ± 6.61% and the inhibition at 30 µM stood at 90.87 ± 0.35%. Besides, in the data set with MDA-MB-231 cells, the inhibition at 10 µM came out at 90.95 ± 0.4% and the inhibition at 30 µM was 89.66 ± 0.28%.
As to `COC(=O)[C@]1(C)CCC[C@@]2(C)[C@@H]3CC[C@@]4(CN[C@@H](C)c5ccc6ccccc6c5)C[C@]3(CC[C@@H]21)C[C@H]4O` [Compound 30, (4R,4aS,6aR,8R,9S,11aR,11bS)-Methyl 8-hydroxy-4,11b-dimethyl-9-((((S)-1-(naphthalen-2-yl)ethyl)amino)methyl)tetradecahydro-6a,9-methanocyclohepta[a]naphthalene-4-carboxylate], the melting point was in the range of 102 to 106 °C. Besides, in the data set on SiHa cells, the inhibition at 10 µM was less than 20% and the inhibition at 30 µM was 101.4 ± 0.6%. Also, in the data set on A2780 cells, the inhibition at 10 µM worked out at 33.1 ± 1.23% and the inhibition at 30 µM is 99.71 ± 0.27%. Further, in the data set with NIH/3T3 fibroblast cells, the inhibition at 10 µM came out at 21.5 ± 0.48% and the inhibition at 30 µM came to 100.7 ± 0.2%. In the data set on MCF-7 cells, the inhibition at 10 µM was determined as 79.5 ± 1.01% and the inhibition at 30 µM is 95.63 ± 0.55%. In the data set on HeLa cells, the inhibition at 10 µM was 40.8 ± 0.99% and the inhibition at 30 µM was 94.51 ± 0.19%. In the data set on MDA-MB-231 cells, the inhibition at 10 µM was 50.7 ± 3.21% and the inhibition at 30 µM is 98.7 ± 0.49%.
As for `COC(=O)C1(C)CCCC2(C)C3CCC4(CN)CC3(CCC12)CC4O` [Compound 31, (4. R,4aS,6aR,8R,9S,11aR,11bS)-Methyl 9-(aminomethyl)-8-hydroxy-4,11b-dimethyltetradecahydro-6a,9-methanocyclohepta[a]naphthalene-4-carboxylate], the melting point is 64 to 68 °C. In the data set with SiHa cells, the inhibition at 10 µM is less than 20% and the inhibition at 30 µM came to 95.68 ± 0.81%. Moreover, in the data set on A2780 cells, the inhibition at 10 µM was 37.3 ± 1.04% and the inhibition at 30 µM is 97.52 ± 0.8%. Besides, in the data set with NIH/3T3 fibroblast cells, the inhibition at 10 µM is less than 20% and the inhibition at 30 µM is 97.62 ± 0.71%. For the same compound, in the data set with MCF-7 cells, the inhibition at 10 µM was determined as 72.7 ± 3.15% and the inhibition at 30 µM was 99.42 ± 0.23%. In the data set on HeLa cells, the inhibition at 10 µM was less than 20% and the inhibition at 30 µM was determined as 96.02 ± 0.89%. Besides, in the data set with MDA-MB-231 cells, the inhibition at 10 µM was determined as 49.5 ± 3.47% and the inhibition at 30 µM turned out to be 96.82 ± 0.65%.
On to `COC(=O)[C@]1(C)CCC[C@@]2(C)[C@@H]3CC[C@@]4(Cn5cc(-c6ccccc6)nn5)C[C@]3(CC[C@@H]21)CC4=O` [Compound 33, (4R,4aS,6aR,9S,11aR,11bS)-Methyl 4,11b-dimethyl-8-oxo-9-((4-phenyl-1H-1,2,3-triazol-1-yl)methyl)tetradecahydro-6a,9-methanocyclohepta[a]naphthalene-4-carboxylate], for which the melting point is 137 to 140 °C. In the data set on SiHa cells, the inhibition at 10 µM was less than 20% and the inhibition at 30 µM is less than 20%. Further, in the data set with A2780 cells, the inhibition at 10 µM amounted to 41.1 ± 1.23% and the inhibition at 30 µM was found to be 51.5 ± 1.41%. Also, in the data set on NIH/3T3 fibroblast cells, the inhibition at 10 µM turned out to be 54.5 ± 1.93% and the inhibition at 30 µM was determined as 78.9 ± 2.52%. In addition, in the data set on MCF-7 cells, the inhibition at 10 µM turned out to be 57.1 ± 2.13% and the inhibition at 30 µM turned out to be 60.3 ± 3.65%. In the data set on HeLa cells, the inhibition at 10 µM was less than 20% and the inhibition at 30 µM worked out at 23.9 ± 5.01%. In the data set on MDA-MB-231 cells, the inhibition at 10 µM was less than 20% and the inhibition at 30 µM is less than 20%.
